Assay results as given in patent US12030896B2, “PIKfyve inhibitors” (Mayo Foundation for Medical Education and Research, priority 2018, dated 2024).
Where “and” joins values, the source holds several entries; their conditions need not be identical. Equal values may be shown once. Read-outs that look alike come from different tables or passages of the source.

Assay: Pharmacokinetic study of Example 3 in mouse (IV, IP)
Assay type: in vivo, C57 Mouse
Settings: for AUC(0-inf): read-out: AUCINF_pred
Procedure: Species: C57 Mouse. Dose Route: IV&IP. Formulation Vehicle: IV&IP: 10% DMSO/30% PEG400/60% Saline. Dose Level: IV (5 mg/kg) and IP (30 mg/kg). Dose Volume: IV (5 mL/kg) and IP (10 mL/kg). Formulation concentrations: IV (1 mg/mL) and IP (3 mg/mL). LLOQ: IV (2 ng/mL) and IP (10 ng/mL).

[1] = 5 mg/kg IV, individual animals 101M-103M
[2] = 30 mg/kg IP, individual animals 201M-203M
[3] = C57, mouse, plasma, ip, 30 mg/kg, 30 mg/kg IP, individual animals 201M-203M
[4] = C57, mouse, plasma, ip, 30 mg/kg, 30 mg/kg IP, mean
[5] = C57, mouse, plasma, iv, 5 mg/kg, 5 mg/kg IV, individual animals 101M-103M
[6] = C57, mouse, plasma, iv, 5 mg/kg, 5 mg/kg IV, mean

Cc1ccc(Nc2nc(N/N=C/c3c[nH]c4ccccc34)cc(N3CCOCC3)n2)cc1 [Example 3, (E)-4-(2-((1H-indol-3-yl)methylene)hydrazinyl)-6-morpholino-N-(p-tolyl)pyrimidin-2-amine]
Plasma concentrations (5 mg/kg IV, 0.08 h, individual animals 101M-103M): 9197.2 ng/mL and 4387.4 ng/mL and 7116.5 ng/mL
Plasma concentrations (5 mg/kg IV, 0.25 h, individual animals 101M-103M): 7195.4 ng/mL and 2758.6 ng/mL and 3627.2 ng/mL
Plasma concentrations (5 mg/kg IV, 0.50 h, individual animals 101M-103M): 1641.4 ng/mL and 2830.9 ng/mL
Plasma concentrations (5 mg/kg IV, 1.00 h, individual animals 101M-103M): 944.6 ng/mL and 1358.7 ng/mL
Plasma concentrations (5 mg/kg IV, 2.00 h, individual animals 101M-103M): 355.3 ng/mL and 348.7 ng/mL
Plasma concentrations (5 mg/kg IV, 4.00 h, individual animals 101M-103M): 71.0 ng/mL and 80.3 ng/mL
Plasma concentrations (5 mg/kg IV, 8.00 h, individual animals 101M-103M): 35.2 ng/mL and 37.8 ng/mL
Plasma concentrations (5 mg/kg IV, 24.00 h, individual animals 101M-103M, LLOQ 2 ng/mL): BLQ
AUCINF_pred [1]: 3424.1 ng·h/mL and 4892.0 ng·h/mL
AUClast [1]: 3387.7 ng·h/mL and 4862.4 ng·h/mL
Cl_pred [1]: 15.2 mL/min/kg and 24.3 mL/min/kg and 17 mL/min/kg
Cmax [1]: 9197.2 ng/mL and 4387.4 ng/mL and 7116.5 ng/mL
HL_Lambda_z (T1/2, h) [1]: 0.98 h and 0.85 h
MRTlast [1]: 0.90 h and 0.77 h
Vz_pred [1]: 1.12 L/kg and 2.06 L/kg and 1.25 L/kg
Cl_pred (5 mg/kg IV, mean): 18.8 mL/min/kg
Vz_pred (5 mg/kg IV, mean): 1.48 L/kg
Plasma concentrations (30 mg/kg IP, 0.25 h, individual animals 201M-203M): 1507.7 ng/mL and 971.3 ng/mL
Plasma concentrations (30 mg/kg IP, 0.50 h, individual animals 201M-203M): 2007.7 ng/mL and 1751.8 ng/mL
Plasma concentrations (30 mg/kg IP, 1.00 h, individual animals 201M-203M): 3178.8 ng/mL and 2919.1 ng/mL
Plasma concentrations (30 mg/kg IP, 2.00 h, individual animals 201M-203M): 3158.8 ng/mL and 3638.0 ng/mL
Plasma concentrations (30 mg/kg IP, 4.00 h, individual animals 201M-203M): 2115.5 ng/mL and 1962.2 ng/mL
Plasma concentrations (30 mg/kg IP, 8.00 h, individual animals 201M-203M): 1428.1 ng/mL and 1227.0 ng/mL
Plasma concentrations (30 mg/kg IP, 24.00 h, individual animals 201M-203M): 185.0 ng/mL and 145.1 ng/mL
AUCINF_pred [2]: 29976.8 ng·h/mL and 27188.2 ng·h/mL
AUClast [2]: 28429.1 ng·h/mL and 26046.4 ng·h/mL
Cl_F_pred [2]: 22 mL/min/kg and 16.7 mL/min/kg and 18.3 mL/min/kg
Cmax [2]: 3178.8 ng/mL and 3638.0 ng/mL
F % [2]: 79.64% and 103.54% and 94.86%
HL_Lambda_z (T1/2, h) [2]: 5.85 h and 5.52 h
MRTlast [2]: 5.45 h and 5.15 h
Tmax [2]: 2.00 h
Vz_F_pred [2]: 10.11 L/kg and 8.44 L/kg and 8.78 L/kg
Cl_F_pred (30 mg/kg IP, mean): 19 mL/min/kg
Vz_F_pred (30 mg/kg IP, mean): 9.11 L/kg
concentration at 0.25 h (C57, mouse, plasma, intraperitoneal, 30 mg/kg, 30 mg/kg IP, 0.25 h, individual animals 201M-203M, read-out: Plasma concentrations): 1490 ng/mL
concentration at 0.25 h (C57, mouse, plasma, intraperitoneal, 30 mg/kg, 30 mg/kg IP, 0.25 h, mean, read-out: Plasma concentrations): 1320 ng/mL
concentration at 0.5 h (C57, mouse, plasma, intraperitoneal, 30 mg/kg, 30 mg/kg IP, 0.50 h, individual animals 201M-203M, read-out: Plasma concentrations): 2270 ng/mL
concentration at 0.5 h (C57, mouse, plasma, intraperitoneal, 30 mg/kg, 30 mg/kg IP, 0.50 h, mean, read-out: Plasma concentrations): 2010 ng/mL
concentration at 1 h (C57, mouse, plasma, intraperitoneal, 30 mg/kg, 30 mg/kg IP, 1.00 h, individual animals 201M-203M, read-out: Plasma concentrations): 2990 ng/mL
concentration at 1 h (C57, mouse, plasma, intraperitoneal, 30 mg/kg, 30 mg/kg IP, 1.00 h, mean, read-out: Plasma concentrations): 3030 ng/mL
concentration at 2 h (C57, mouse, plasma, intraperitoneal, 30 mg/kg, 30 mg/kg IP, 2.00 h, individual animals 201M-203M, read-out: Plasma concentrations): 2830 ng/mL
concentration at 2 h (C57, mouse, plasma, intraperitoneal, 30 mg/kg, 30 mg/kg IP, 2.00 h, mean, read-out: Plasma concentrations): 3210 ng/mL
concentration at 4 h (C57, mouse, plasma, intraperitoneal, 30 mg/kg, 30 mg/kg IP, 4.00 h, individual animals 201M-203M, read-out: Plasma concentrations): 1600 ng/mL
concentration at 4 h (C57, mouse, plasma, intraperitoneal, 30 mg/kg, 30 mg/kg IP, 4.00 h, mean, read-out: Plasma concentrations): 1890 ng/mL
concentration at 8 h (C57, mouse, plasma, intraperitoneal, 30 mg/kg, 30 mg/kg IP, 8.00 h, individual animals 201M-203M, read-out: Plasma concentrations): 998 ng/mL
concentration at 8 h (C57, mouse, plasma, intraperitoneal, 30 mg/kg, 30 mg/kg IP, 8.00 h, mean, read-out: Plasma concentrations): 1220 ng/mL
concentration at 24 h (C57, mouse, plasma, intraperitoneal, 30 mg/kg, 30 mg/kg IP, 24.00 h, individual animals 201M-203M, read-out: Plasma concentrations): 107 ng/mL
concentration at 24 h (C57, mouse, plasma, intraperitoneal, 30 mg/kg, 30 mg/kg IP, 24.00 h, mean, read-out: Plasma concentrations): 146 ng/mL
concentration at 0.08 h (C57, mouse, plasma, intravenous, 5 mg/kg, 5 mg/kg IV, 0.08 h, mean, read-out: Plasma concentrations): 6900 ng/mL
concentration at 0.25 h (C57, mouse, plasma, intravenous, 5 mg/kg, 5 mg/kg IV, 0.25 h, mean, read-out: Plasma concentrations): 4530 ng/mL
concentration at 0.5 h (C57, mouse, plasma, intravenous, 5 mg/kg, 5 mg/kg IV, 0.50 h, individual animals 101M-103M, read-out: Plasma concentrations): 2080 ng/mL
concentration at 0.5 h (C57, mouse, plasma, intravenous, 5 mg/kg, 5 mg/kg IV, 0.50 h, mean, read-out: Plasma concentrations): 2180 ng/mL
concentration at 1 h (C57, mouse, plasma, intravenous, 5 mg/kg, 5 mg/kg IV, 1.00 h, individual animals 101M-103M, read-out: Plasma concentrations): 1350 ng/mL
concentration at 1 h (C57, mouse, plasma, intravenous, 5 mg/kg, 5 mg/kg IV, 1.00 h, mean, read-out: Plasma concentrations): 1220 ng/mL
concentration at 2 h (C57, mouse, plasma, intravenous, 5 mg/kg, 5 mg/kg IV, 2.00 h, individual animals 101M-103M, read-out: Plasma concentrations): 309 ng/mL
concentration at 2 h (C57, mouse, plasma, intravenous, 5 mg/kg, 5 mg/kg IV, 2.00 h, mean, read-out: Plasma concentrations): 338 ng/mL
concentration at 4 h (C57, mouse, plasma, intravenous, 5 mg/kg, 5 mg/kg IV, 4.00 h, individual animals 101M-103M, read-out: Plasma concentrations): 59 ng/mL
concentration at 4 h (C57, mouse, plasma, intravenous, 5 mg/kg, 5 mg/kg IV, 4.00 h, mean, read-out: Plasma concentrations): 70.1 ng/mL
concentration at 8 h (C57, mouse, plasma, intravenous, 5 mg/kg, 5 mg/kg IV, 8.00 h, individual animals 101M-103M, read-out: Plasma concentrations): 26.5 ng/mL
concentration at 8 h (C57, mouse, plasma, intravenous, 5 mg/kg, 5 mg/kg IV, 8.00 h, mean, read-out: Plasma concentrations): 33.2 ng/mL
AUC(0-t) [3]: 21900 ng·h/mL
MRT last [3]: 4.9 h
AUC(0-inf) [3]: 22700 ng·h/mL
Cmax (C57, mouse, plasma, ip, 30 mg/kg, 30 mg/kg IP, individual animals 201M-203M, read-out: Cmax): 2990 ng/mL
half-life (C57, mouse, plasma, ip, 30 mg/kg, 30 mg/kg IP, individual animals 201M-203M, read-out: HL_Lambda_z (T1/2, h) (converted)): 5.29 h
Tmax (C57, mouse, plasma, ip, 30 mg/kg, 30 mg/kg IP, individual animals 201M-203M, read-out: Tmax): 1 h
AUC(0-t) [4]: 25400 ng·h/mL
MRT last [4]: 5.17 h
bioavailability [4]: 92.7%
AUC(0-inf) [4]: 26600 ng·h/mL
Cmax (C57, mouse, plasma, ip, 30 mg/kg, 30 mg/kg IP, mean, read-out: Cmax): 3270 ng/mL
half-life (C57, mouse, plasma, ip, 30 mg/kg, 30 mg/kg IP, mean, read-out: HL_Lambda_z (T1/2, h) (converted)): 5.55 h
Tmax (C57, mouse, plasma, ip, 30 mg/kg, 30 mg/kg IP, mean, read-out: Tmax): 1.33 h
half-life (C57, mouse, plasma, ip, 30 mg/kg, IP injection, single 30 mg/kg dose, read-out: half life (converted)): ~5.5 h
AUC(0-t) [5]: 5480 ng·h/mL
MRT last [5]: 0.63 h
AUC(0-inf) [5]: 5500 ng·h/mL
half-life (C57, mouse, plasma, iv, 5 mg/kg, 5 mg/kg IV, individual animals 101M-103M, read-out: HL_Lambda_z (T1/2, h) (converted)): 0.85 h
AUC(0-t) [6]: 4580 ng·h/mL
MRT last [6]: 0.76 h
AUC(0-inf) [6]: 4610 ng·h/mL
Cmax (C57, mouse, plasma, iv, 5 mg/kg, 5 mg/kg IV, mean, read-out: Cmax): 6900 ng/mL
half-life (C57, mouse, plasma, iv, 5 mg/kg, 5 mg/kg IV, mean, read-out: HL_Lambda_z (T1/2, h) (converted)): 0.89 h
peak concentration (IP injection, single 30 mg/kg dose): 3268 ng/mL
